Data as given in article PMC2720952 (BMC Evolutionary Biology, 2009).

Key:
[1] = target: AaxC (CT374) from C. trachomatis D/UW-3 (Chlamydia trachomatis, UniProt O84379); details: 1 mM L-arginine, E medium pH 5, 37 °C, 20 min; AaxB co-expressed; labelled compound
C. pneumoniae AaxC = C. pneumoniae AaxC (Chlamydia pneumoniae, UniProt Q9Z6M8); details: 1 mM L-arginine, E medium pH 5, 37 °C, 20 min; AaxB co-expressed; labelled compound
Chain of C. pneumoniae AaxC (Q9Z6M8 whole entry): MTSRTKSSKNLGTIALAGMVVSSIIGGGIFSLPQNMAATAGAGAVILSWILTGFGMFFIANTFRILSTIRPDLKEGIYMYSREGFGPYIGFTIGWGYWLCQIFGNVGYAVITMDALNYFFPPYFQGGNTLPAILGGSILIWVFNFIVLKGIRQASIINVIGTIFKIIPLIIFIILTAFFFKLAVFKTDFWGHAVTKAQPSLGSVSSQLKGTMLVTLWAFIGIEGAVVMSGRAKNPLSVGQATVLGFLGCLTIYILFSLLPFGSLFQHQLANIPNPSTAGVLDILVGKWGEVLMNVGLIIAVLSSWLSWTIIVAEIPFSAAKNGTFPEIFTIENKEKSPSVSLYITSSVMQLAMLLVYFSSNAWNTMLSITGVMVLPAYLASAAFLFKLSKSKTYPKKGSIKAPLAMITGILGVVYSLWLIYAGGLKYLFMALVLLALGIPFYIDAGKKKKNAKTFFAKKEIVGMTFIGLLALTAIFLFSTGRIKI

Chain of AaxC (CT374) from C. trachomatis D/UW-3 (O84379 whole entry): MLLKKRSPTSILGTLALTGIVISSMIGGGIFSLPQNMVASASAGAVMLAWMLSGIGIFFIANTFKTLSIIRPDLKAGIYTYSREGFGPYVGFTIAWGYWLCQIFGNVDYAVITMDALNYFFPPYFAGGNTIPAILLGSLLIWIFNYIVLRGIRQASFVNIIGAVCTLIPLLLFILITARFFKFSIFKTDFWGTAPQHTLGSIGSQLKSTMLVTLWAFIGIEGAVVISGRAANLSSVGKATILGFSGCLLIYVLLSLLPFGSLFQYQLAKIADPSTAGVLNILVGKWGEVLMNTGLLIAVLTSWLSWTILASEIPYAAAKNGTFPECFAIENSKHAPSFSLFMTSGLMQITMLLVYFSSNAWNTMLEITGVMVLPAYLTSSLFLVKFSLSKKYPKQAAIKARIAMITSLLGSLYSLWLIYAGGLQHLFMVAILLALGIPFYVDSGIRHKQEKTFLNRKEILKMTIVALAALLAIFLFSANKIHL

## N=C(N)NCCC[C@H](N)C(=O)O [L-arginine]
[1]
  uptake of L-[2,3,4,5-3H]arginine by E. coli DEG0147 cells, filtration: cells expressing D/UW-3 strain aaxBC genes showed significantly enhanced uptake
C. pneumoniae AaxC
  uptake of L-[2,3,4,5-3H]arginine by E. coli DEG0147 cells, filtration: A significant difference in samples expressing C. pneumoniae aaxBC (relative to pBAD/HisA)
